Assay results reported in ChEMBL document CHEMBL4364300, “Boron in drug design: Recent advances in the development of new therapeutic agents” (Eur J Med Chem, 2019).
≈ marks a conversion by molar mass, not a printed value.

Key:
Streptococcus pneumoniae = assay: Antibacterial activity against Streptococcus pneumoniae ATCC 49619; type: functional
Enterococcus faecium = assay: Antibacterial activity against Enterococcus faecium ATCC 568; type: functional
SK-OV-3 = assay: Antiproliferative activity against human SKOV3 cells by MTT assay; type: functional, cell-based
MDA-MB-231 [1] = assay: Antiproliferative activity against human MDA-MB-231 cells by MTT assay; type: functional, cell-based
HCT-116 = assay: Antiproliferative activity against human HCT116 cells by MTT assay; type: functional, cell-based
[2] = system: Mycobacterium tuberculosis; assay: Antimycobacterial activity against Mycobacterium tuberculosis H37Rv after 14 days by broth micro-dilution method; type: functional; conditions: 336 h
GH3 = assay: Cytotoxicity against rat GH3 cells; type: functional, cell-based
[3] = system: Trypanosoma brucei brucei; assay: Anti-parasitic activity against trypomastigote form of Trypanosoma brucei brucei 427 after 24 hrs by resazurin dye-based assay; type: functional, organism-based; conditions: Trypanosoma brucei, 427, 24 h
Trichomonas vaginalis = assay: Antiprotozoal activity against Trichomonas vaginalis G3; type: functional, organism-based
[4] = system: Mycobacterium tuberculosis; assay: […] activity against Mycobacterium tuberculosis; type: functional
[5] = Inhibition of bacterial beta lactamase CTX-M-15; parameters: species or system Bacteria
[6] = Inhibition of bacterial beta lactamase KPC-2; parameters: species or system Bacteria
[7] = biological target: 3',5'-cyclic-AMP phosphodiesterase 4B (Homo sapiens, UniProt Q07343); assay: Inhibition of […] human recombinant PDE4B catalytic domain (152 to 484 residues)
Leishmania major = assay: Antileishmanial activity Leishmania major MHOM/SA/85/JISH118 after 72 hrs by giemsa staining based light microscopic analysis; type: functional, organism-based; conditions: MHOM/SA/85/JISH118, 72 h
Leishmania panamensis = assay: Antileishmanial activity Leishmania panamensis MHOM/PA/67/BOYNTON after 72 hrs by giemsa staining based light microscopic analysis; type: functional, organism-based
Leishmania aethiopica = assay: Antileishmanial activity Leishmania aethiopica MHOM/ET/84/KH after 72 hrs by giemsa staining based light microscopic analysis; type: functional, organism-based
Leishmania mexicana = assay: Antileishmanial activity Leishmania mexicana MNYC/BZ/62/M379 after 72 hrs by giemsa staining based light microscopic analysis; type: functional, organism-based; conditions: MNYC/BZ/62/M379, 72 h
Leishmania tropica [8] = assay: Antileishmanial activity Leishmania tropica MHOM/IR/2013/HTD4 after 72 hrs by giemsa staining based light microscopic analysis; type: functional, organism-based; conditions: MHOM/IR/2013/HTD4, 72 h
Leishmania tropica [9] = assay: Antileishmanial activity Leishmania tropica AO21/p after 72 hrs by giemsa staining based light microscopic analysis; type: functional, organism-based
[10] = Inhibition of bacterial beta lactamase AmpC; parameters: species or system Bacteria
[11] = Inhibition of bacterial beta lactamase CTX-M-9; parameters: species or system Bacteria
THP-1 = assay: Cytotoxicity against human THP1 cells after 72 hrs by SRB assay; type: functional, cell-based; conditions: THP-1, 72 h
[12] = Inhibition of Enterobacter cloacae beta lactamase P99 after 5 mins
[13] = Inhibition of bacterial beta lactamase OXA-10 after 5 mins; parameters: species or system Bacteria
[14] = Inhibition of bacterial beta lactamase OXA-48 after 5 mins; parameters: species or system Bacteria
[15] = Inhibition of bacterial beta lactamase CTX-M-15 after 5 mins; parameters: species or system Bacteria
Beta-lactamase TEM = Beta-lactamase TEM (Bacteria, UniProt P62593); assay: Inhibition of bacterial beta lactamase TEM-1 after 5 mins
[16] = Inhibition of bacterial beta lactamase OXA-24 after 5 mins; parameters: species or system Bacteria
[17] = Inhibition of Pseudomonas aeruginosa beta lactamase AmpC after 5 mins
[18] = Inhibition of bacterial beta lactamase KPC-2 after 5 mins; parameters: species or system Bacteria
Plasmodium falciparum [19] = assay: Antimalarial activity against Plasmodium falciparum 3D7 after 48 hrs by [3H]-hypoxanthine incorporation assay; type: functional, organism-based
Plasmodium falciparum [20] = assay: Antimalarial activity against Plasmodium falciparum W2 after 48 hrs by [3H]-hypoxanthine incorporation assay; type: functional, organism-based
Plasmodium falciparum [21] = assay: Antimalarial activity against Plasmodium falciparum Dd2 after 48 hrs by [3H]-hypoxanthine incorporation assay; type: functional, organism-based
Plasmodium falciparum [22] = assay: Antimalarial activity against Plasmodium falciparum K1 after 48 hrs by [3H]-hypoxanthine incorporation assay; type: functional, organism-based
Plasmodium falciparum [23] = assay: Antimalarial activity against Plasmodium falciparum HB3 after 48 hrs by [3H]-hypoxanthine incorporation assay; type: functional, organism-based
Plasmodium falciparum [24] = assay: Antimalarial activity against Plasmodium falciparum FCR-3 after 48 hrs by [3H]-hypoxanthine incorporation assay; type: functional, organism-based; conditions: FCR-3/Gambia
Plasmodium falciparum [25] = assay: Antimalarial activity against Plasmodium falciparum TM90C2B after 48 hrs by [3H]-hypoxanthine incorporation assay; type: functional, organism-based
Plasmodium falciparum [26] = assay: Antimalarial activity against Plasmodium falciparum Ugandan field isolates after 48 hrs by [3H]-hypoxanthine incorporation assay; type: functional, organism-based
Plasmodium falciparum [27] = assay: Antimalarial activity against Plasmodium falciparum AN3661 derived from malaria patient; type: functional
Plasmodium berghei = assay: Antimalarial activity against Plasmodium berghei […]; type: functional
MDA-MB-231 [28] = assay: Antiproliferative activity against human MDA-MB-231 cells after 72 hrs; type: functional, cell-based; conditions: MDA-MB-231, 72 h
[29] = biological target: Proteasome Macropain subunit MB1 (Homo sapiens, UniProt P28074); assay: Inhibition of human chymotrypsin-like activity of 20S proteasome (unknown origin)
[30] = Inhibition of bacterial beta lactamase OXA-24; parameters: species or system Bacteria
[31] = Inhibition of bacterial beta lactamase VIM-2; parameters: species or system Bacteria
[32] = Inhibition of bacterial beta lactamase NDM-1; parameters: species or system Bacteria
HepG2 = assay: Antiproliferative activity against human HepG2 cells by MTT assay; type: functional, cell-based
Hep 3B2 = assay: Antiproliferative activity against human Hep3B cells by MTT assay; type: functional, cell-based
A2780 = assay: Antiproliferative activity against human A2780 cells by MTT assay; type: functional, cell-based

Sequence of Proteasome Macropain subunit MB1 (P28074 whole entry): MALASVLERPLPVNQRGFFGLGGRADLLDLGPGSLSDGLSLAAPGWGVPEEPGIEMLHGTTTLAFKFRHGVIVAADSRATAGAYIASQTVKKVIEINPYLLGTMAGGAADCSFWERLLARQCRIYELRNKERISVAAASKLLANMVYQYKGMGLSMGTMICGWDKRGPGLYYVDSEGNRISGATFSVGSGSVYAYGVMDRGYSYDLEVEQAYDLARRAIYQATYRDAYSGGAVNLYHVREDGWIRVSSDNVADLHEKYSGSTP
Sequence of Beta-lactamase TEM (P62593 whole entry): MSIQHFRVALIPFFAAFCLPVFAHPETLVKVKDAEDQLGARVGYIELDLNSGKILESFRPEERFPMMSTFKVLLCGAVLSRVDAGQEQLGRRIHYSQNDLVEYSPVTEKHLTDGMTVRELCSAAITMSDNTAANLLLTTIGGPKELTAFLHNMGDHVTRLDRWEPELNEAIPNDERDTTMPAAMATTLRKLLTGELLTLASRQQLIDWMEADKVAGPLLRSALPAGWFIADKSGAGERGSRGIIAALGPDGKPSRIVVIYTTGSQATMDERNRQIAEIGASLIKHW
Sequence of 3',5'-cyclic-AMP phosphodiesterase 4B (Q07343 whole entry, the tested form may be a part): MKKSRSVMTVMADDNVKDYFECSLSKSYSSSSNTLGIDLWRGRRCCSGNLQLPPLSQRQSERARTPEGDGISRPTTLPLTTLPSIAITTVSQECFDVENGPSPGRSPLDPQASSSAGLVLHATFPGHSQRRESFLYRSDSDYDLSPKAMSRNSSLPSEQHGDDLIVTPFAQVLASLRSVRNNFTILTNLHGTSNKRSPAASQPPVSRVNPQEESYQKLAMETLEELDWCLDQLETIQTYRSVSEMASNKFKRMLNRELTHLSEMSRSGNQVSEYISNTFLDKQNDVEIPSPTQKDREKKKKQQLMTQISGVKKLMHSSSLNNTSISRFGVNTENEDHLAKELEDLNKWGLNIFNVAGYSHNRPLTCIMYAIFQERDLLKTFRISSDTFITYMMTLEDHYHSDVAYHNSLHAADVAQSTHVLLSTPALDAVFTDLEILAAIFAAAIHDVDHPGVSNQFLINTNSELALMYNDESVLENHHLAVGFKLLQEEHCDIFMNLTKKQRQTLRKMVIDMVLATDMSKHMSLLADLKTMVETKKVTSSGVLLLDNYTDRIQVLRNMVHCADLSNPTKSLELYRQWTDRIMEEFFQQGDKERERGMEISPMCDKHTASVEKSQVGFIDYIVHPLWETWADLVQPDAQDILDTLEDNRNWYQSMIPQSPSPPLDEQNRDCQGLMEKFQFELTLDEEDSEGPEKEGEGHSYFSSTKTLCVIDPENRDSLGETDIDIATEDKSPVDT

Compound `CC[C@H]1OC(=O)[C@H](C)[C@@H](O[C@H]2C[C@@](C)(OC)[C@@H](OC(=O)NCCCNC(=O)CCc3cccc4c3B(O)OC4)[C@H](C)O2)[C@H](C)[C@@H](O[C@@H]2O[C@H](C)C[C@H](N(C)C)[C@H]2O)[C@](C)(O)C[C@@H](C)CN(C)[C@H](C)[C@H]2OC(=O)O[C@@]21C` has an MIC (Streptococcus pneumoniae) of 0.13 µg/mL (≈ 0.122 µM) and an MIC (Enterococcus faecium) of 0.13 µg/mL (≈ 0.122 µM).

`O=C(/C=C/c1ccc2c(c1)B(O)OC2)c1ccc(F)cc1` showed an IC50 (SK-OV-3) of 1400 to 2800 nM, an IC50 (MDA-MB-231 [1]) of 1400 to 2800 nM and an IC50 (HCT-116) of 1400 to 2800 nM.

With `Nc1ccc2c(c1Br)B(O)OC2` the MIC99 [2] was 1.9 µM (≈ 0.433 µg/mL).

`CCOC(=O)/C(C#N)=C/c1ccc(B(O)O)cc1` showed an IC50 (GH3) of 140 nM.

`O=C(/C=C/c1ccc2c(c1)OCO2)Nc1ccc2c(c1)B(O)OC2` showed an IC50 [3] of 86 nM, an IC50 (Trichomonas vaginalis) of 22800 nM and an MIC99 [4] of 40.7 µM (≈ 13.2 µg/mL).

`CC(C)(C)OC(=O)Nc1cccc2cc(B(O)O)sc12` gave an IC50 [5] of 2300 to 4500 nM and an IC50 [6] of 2300 to 4500 nM.

Work on `CC(C)OCCOc1nc(Oc2ccc3c(c2)COB3O)ccc1C#N` yielded an IC50 [7] of 2.1 to 8.4 nM.

For `O=C(Nc1ccc2c(c1)B(O)OC2)c1cn(-c2ccccn2)nn1`, the EC50 (Leishmania major) was 2000 to 23000 nM, the EC50 (Leishmania panamensis) was 2000 to 23000 nM and the EC50 (Leishmania aethiopica) was 2000 to 23000 nM. For the same compound, the EC50 (Leishmania mexicana) was 2000 to 23000 nM, the EC50 (Leishmania tropica [8]) was 2000 to 23000 nM and the EC50 (Leishmania tropica [9]) was 2000 to 23000 nM.

For `O=C(O)/C=C/c1c(B(O)O)sc2ccccc12`, the Ki [10] was 40 to 90 nM and the Ki [11] was 40 to 90 nM.

Work on `Cc1ccc2c(c1-c1ccccc1C(N)=O)B(O)OC2` yielded an MIC99 [2] of 5 µM (≈ 1.34 µg/mL) and an IC50 (THP-1) of 1800 nM.

`Cc1c(Oc2nc(N)ns2)cc2c(c1C)[C@@H](CC(=O)O)OB2O` gave an IC50 [12] of 5 to 3900 nM, an IC50 [13] of 5 to 3900 nM and an IC50 [14] of 5 to 3900 nM. The IC50 [15] was 5 to 3900 nM, the IC50 (Beta-lactamase TEM) was 5 to 3900 nM and the IC50 [16] was 5 to 3900 nM. For the same compound, the IC50 [17] was 5 to 3900 nM and the IC50 [18] was 5 to 3900 nM.

`O=C(O)CCc1cccc2c1B(O)OC2` showed an IC50 (Plasmodium falciparum [19]) of 32 nM, an IC50 (Plasmodium falciparum [20]) of 32 nM and an IC50 (Plasmodium falciparum [21]) of 32 nM. For the same compound, the IC50 (Plasmodium falciparum [22]) was 32 nM, the IC50 (Plasmodium falciparum [23]) was 32 nM and the IC50 (Plasmodium falciparum [24]) was 32 nM. The IC50 (Plasmodium falciparum [25]) was 32 nM, the IC50 (Plasmodium falciparum [26]) was 64 nM and the ED90 (Plasmodium falciparum [27]) was 0.34 mg/kg. The ED90 (Plasmodium berghei) was 0.57 mg/kg.

With `CSC[C@H](NC(=O)c1cc(Cl)ccc1Cl)C(=O)N[C@@H](CC(C)C)B1OCCNCCO1` the IC50 (MDA-MB-231 [28]) was 8.4 nM and the IC50 [29] was 4.6 nM.

`O=C(O)c1cccc2cc(B(O)O)sc12` gave an IC50 [30] of 23000 nM, an IC50 [31] of 20200 to 27700 nM and an IC50 [32] of 20200 to 27700 nM.

Work on `CCc1cccc(Nc2ccn(CCC(=O)N[C@@H](CC(C)C)B(O)O)c(=O)c2)c1` yielded a Ki [29] of 17 nM.

For `Cc1cnn(B(n2cc(C)cn2)n2cc(C)cn2)c1`, the IC50 (HepG2) was 1250 nM and the IC50 (Hep 3B2) was 15200 nM.

In the case of `NCc1ccc2sc(B(O)O)cc2c1`, the IC50 [10] is reported as 400 nM.

Work on `OB1OC(N2CCOCC2)c2cc(F)ccc21` (stereo unspecified) yielded an IC50 (A2780) of 14800 nM.

For `CN(C)CCOc1cc(NC(=O)c2ccc3c(c2)COB3O)ccc1Cl`, the EC50 (Leishmania major) was 2000 to 23000 nM, the EC50 (Leishmania panamensis) was 2000 to 23000 nM and the EC50 (Leishmania aethiopica) was 2000 to 23000 nM. The EC50 (Leishmania mexicana) was 2000 to 23000 nM, the EC50 (Leishmania tropica [8]) was 2000 to 23000 nM and the EC50 (Leishmania tropica [9]) was 2000 to 23000 nM.

With `CC(C)(C)OC(=O)c1cccc2cc(B(O)O)sc12` the IC50 [5] was 2300 to 4500 nM, the IC50 [6] was 2300 to 4500 nM and the IC50 [31] was 20200 to 27700 nM. For the same compound, the IC50 [32] was 20200 to 27700 nM.
